Data reported in ChEMBL document CHEMBL1201862, “PubChem BioAssay data set” (2004).
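Where inhibition never reached the appropriate level, the endpoint shown equals the highest concentration tested. Otherwise, values were interpolated linearly from a five-concentration, 48-hour dose response in 96-well plates. Abbreviation: GI50, concentration required for 50% inhibition of growth.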 The source made the active and inactive calls. Cut-off read from the data, not from the text of the source: active = GI50 up to about 1.1 µM and inactive = higher.

Tests used:
Test in all cases: NCI anticancer screen, dose series, 48 h
CCRF-CEM = test system: CCRF-CEM
HCT-116 = test system: HCT-116
MOLT-4 = test system: MOLT-4
NCI-H23 = test system: NCI-H23
SN12C = test system: SN12C
A498 = test system: A498
RXF 393 = test system: RXF 393
SF-539 = test system: SF-539
K562 = test system: K562
HOP-62 = test system: HOP-62
UACC-257 = test system: UACC-257
TK-10 = test system: TK-10
M14 = test system: M14
SF-268 = test system: SF-268
SK-OV-3 = test system: SK-OV-3
ACHN = test system: ACHN
SK-MEL-5 = test system: SK-MEL-5
HCT-15 = test system: HCT-15
IGROV-1 = test system: IGROV-1
CAKI-1 = test system: CAKI-1

| Structure (SMILES) | GI50 (CCRF-CEM) | GI50 (HCT-116) | GI50 (MOLT-4) | GI50 (NCI-H23) | GI50 (SN12C) | GI50 (A498) | GI50 (RXF 393) | GI50 (SF-539) | GI50 (K562) | GI50 (HOP-62) | GI50 (UACC-257) | GI50 (TK-10) | GI50 (M14) | GI50 (SF-268) | GI50 (SK-OV-3) | GI50 (ACHN) | GI50 (SK-MEL-5) | GI50 (HCT-15) | GI50 (IGROV-1) | GI50 (CAKI-1) |
| --- | --- | --- | --- | --- | --- | --- | --- | --- | --- | --- | --- | --- | --- | --- | --- | --- | --- | --- | --- | --- |
| COS(=O)c1cc(Cl)cc(Cl)c1O (centres undefined) | > 100 µM (inactive) | > 100 µM (inactive) | > 100 µM (inactive) | > 100 µM (inactive) | > 100 µM (inactive) | > 100 µM (inactive) | > 100 µM (inactive) | > 100 µM (inactive) | > 100 µM (inactive) | > 100 µM (inactive) | > 100 µM (inactive) | > 100 µM (inactive) | > 100 µM (inactive) | > 100 µM (inactive) | 81.7 µM (inactive) | > 100 µM (inactive) |  |  |  |  |
| CSc1nc(NC2OCC(OC(C)=O)C(OC(C)=O)C2OC(C)=O)c(/N=C(\C)C(C)=O)c(=O)[nH]1 (centres undefined) | > 100 µM (inactive) | > 100 µM (inactive) | > 100 µM (inactive) | > 100 µM (inactive) | > 100 µM (inactive) | > 100 µM (inactive) | > 100 µM (inactive) | > 100 µM (inactive) | > 100 µM (inactive) |  | > 100 µM (inactive) | > 100 µM (inactive) | > 100 µM (inactive) | > 100 µM (inactive) |  | > 100 µM (inactive) | > 100 µM (inactive) | > 100 µM | > 100 µM (inactive) | > 100 µM (inactive) |
| COc1cc(CCN)c(OC)c(OC)c1 | 34.8 µM (inactive) | 44.4 µM (inactive) | > 100 µM (inactive) | > 100 µM (inactive) | > 100 µM (inactive) | > 100 µM (inactive) | > 100 µM (inactive) |  | 62.1 µM (inactive) | > 100 µM (inactive) | > 100 µM (inactive) | > 100 µM (inactive) | 58.7 µM (inactive) | > 100 µM (inactive) | > 100 µM (inactive) | > 100 µM (inactive) | 23.6 µM (inactive) | > 100 µM | > 100 µM (inactive) | > 100 µM (inactive) |
| CCOC(=O)c1nc2cc(C(F)(F)F)ccc2nc1Nc1ccc(C(=O)NC(C(=O)OCC)C(=O)OCC)cc1 | 75 µM (inactive) | 19 µM (inactive) | > 100 µM (inactive) | 35.5 µM (inactive) | 18.9 µM (inactive) | 25.5 µM (inactive) | 13.6 µM (inactive) |  | 43.2 µM (inactive) | 13.8 µM (inactive) | 18.7 µM (inactive) | 24.7 µM (inactive) |  | 19.5 µM (inactive) | 22.2 µM (inactive) | 23.3 µM (inactive) | 20.5 µM (inactive) | 26.5 µM | 20.1 µM (inactive) | 19 µM (inactive) |
| CC1(C)OCC(CO)(CO)CO1 | > 100 µM (inactive) | > 100 µM (inactive) | > 100 µM (inactive) | > 100 µM (inactive) | > 100 µM (inactive) | 14 µM (inactive) | > 100 µM (inactive) |  | > 100 µM (inactive) |  | > 100 µM (inactive) | > 100 µM (inactive) | > 100 µM (inactive) | > 100 µM (inactive) | > 100 µM (inactive) | > 100 µM (inactive) | > 100 µM (inactive) | > 100 µM |  |  |
| COc1cc(/N=N\c2cccc(S(=O)(=O)O)c2)ccc1/N=N\c1ccc(/C=C/c2ccc(-n3on3-c3ccc(/C=C/c4ccc(/N=N/c5ccc(/N=N\c6cccc(S(=O)(=O)O)c6)cc5OC)cc4S(=O)(=O)O)c(S(=O)(=O)O)c3)cc2S(=O)(=O)O)c(S(=O)(=O)O)c1 | > 100 µM (inactive) | > 100 µM (inactive) | > 100 µM (inactive) | > 100 µM (inactive) | > 100 µM (inactive) | > 100 µM (inactive) | > 100 µM (inactive) | > 100 µM (inactive) | > 100 µM (inactive) | > 100 µM (inactive) | > 100 µM (inactive) |  |  | > 100 µM (inactive) | > 100 µM (inactive) |  | > 100 µM (inactive) | > 100 µM | > 100 µM (inactive) |  |
| O=[N+]([O-])C=C(c1ccc(Cl)cc1)c1ccc(Cl)cc1 | 22 µM (inactive) | 17.7 µM (inactive) | 17.9 µM (inactive) | 9.68 µM (inactive) | 19.5 µM (inactive) | 20 µM (inactive) | 18.7 µM (inactive) | 17 µM (inactive) | 21.3 µM (inactive) | 18.6 µM (inactive) | 20.8 µM (inactive) | 19.4 µM (inactive) | 14.8 µM (inactive) |  |  | 16.7 µM (inactive) |  | 17.2 µM | 28.1 µM (inactive) | 16.6 µM (inactive) |
| COc1ccc([C@H]2c3cc4c(cc3OC(O)(CO)[C@H]2C(=O)O)OCO4)c(OC)c1.COc1ccc([C@H]2c3cc4c(cc3OC3(O)COC(=O)[C@@H]23)OCO4)c(OC)c1 (some centres undefined) | 37.3 µM (inactive) | > 100 µM (inactive) | 61.5 µM (inactive) | > 100 µM (inactive) | > 100 µM (inactive) | > 100 µM (inactive) | > 100 µM (inactive) | > 100 µM (inactive) | 71.1 µM (inactive) | > 100 µM (inactive) | > 100 µM (inactive) | > 100 µM (inactive) | > 100 µM (inactive) | > 100 µM (inactive) | > 100 µM (inactive) | > 100 µM (inactive) | > 100 µM (inactive) | 37.6 µM | > 100 µM (inactive) |  |
| O=C1c2cc3c(cc2CC1Cc1ccc2c(c1)CCC2)CCC3 (centres undefined) | 44.6 µM (inactive) | 38.6 µM (inactive) | 36.6 µM (inactive) | 44.7 µM (inactive) | 41.4 µM (inactive) | 32.3 µM (inactive) | 57.7 µM (inactive) | 33.3 µM (inactive) | 69.5 µM (inactive) | 72.4 µM (inactive) | 87.7 µM (inactive) | > 100 µM (inactive) | > 100 µM (inactive) | 35.6 µM (inactive) | 85.1 µM (inactive) | 48.4 µM (inactive) | 57.8 µM (inactive) | 47.5 µM | 31.6 µM (inactive) |  |
| CC(c1ccccc1)N1CCN(C(C)c2ccccc2)CC1 (centres undefined) |  | 43.5 µM (inactive) | 39.5 µM (inactive) | > 100 µM (inactive) | > 100 µM (inactive) | 77.4 µM (inactive) | 79.6 µM (inactive) |  | 27.7 µM (inactive) | > 100 µM (inactive) | 68.7 µM (inactive) | > 100 µM (inactive) | 22.8 µM (inactive) | > 100 µM (inactive) |  | > 100 µM (inactive) | 17.1 µM (inactive) | 57.1 µM | > 100 µM (inactive) | > 100 µM (inactive) |
| O=C(Nc1ccc(Cl)cc1)c1cc2cc(/N=N/c3ccccc3Cl)ccc2oc1=O | 2.01 µM (inactive) | 11.2 µM (inactive) | 2.58 µM (inactive) | 13.3 µM (inactive) | 18.7 µM (inactive) |  | 46.9 µM (inactive) | 14 µM (inactive) | 5.28 µM (inactive) | 26.9 µM (inactive) | 19.2 µM (inactive) | 33.3 µM (inactive) | 15.5 µM (inactive) | 15.2 µM (inactive) | 46.9 µM (inactive) | 6.3 µM (inactive) | 22.2 µM (inactive) | 2.74 µM | 19 µM (inactive) | 24.9 µM (inactive) |
| COc1cc([N+](=O)[O-])ccc1N1C(=O)C2c3[nH]c4ccccc4c3C3CCC(C(C)(C)C)CC3C2C1=O (centres undefined) | 21.8 µM (inactive) | 44.5 µM (inactive) | > 100 µM (inactive) | 31 µM (inactive) | 64.4 µM (inactive) | > 100 µM (inactive) |  | 62.8 µM (inactive) |  | 7.43 µM (inactive) | 76.4 µM (inactive) | > 100 µM (inactive) | 13.6 µM (inactive) |  | > 100 µM (inactive) | > 100 µM (inactive) | 40.9 µM (inactive) | > 100 µM | > 100 µM (inactive) | 2.04 µM (inactive) |
| CCOC(=O)C(O)(NC(=O)c1ccccc1F)C(F)(F)F (centres undefined) | > 100 µM (inactive) | > 100 µM (inactive) | > 100 µM (inactive) | > 100 µM (inactive) | > 100 µM (inactive) |  | > 100 µM (inactive) | > 100 µM (inactive) | > 100 µM (inactive) | > 100 µM (inactive) | > 100 µM (inactive) | > 100 µM (inactive) | > 100 µM (inactive) | > 100 µM (inactive) | > 100 µM (inactive) | > 100 µM (inactive) | > 100 µM (inactive) | > 100 µM | 84.5 µM (inactive) | > 100 µM (inactive) |
| O=C(Nc1ccc2[nH]c3c(-c4ccccc4)nccc3c2c1)c1ccccc1[N+](=O)[O-] | 5.93 µM (inactive) | 5.71 µM (inactive) | 2.22 µM (inactive) | 4.37 µM (inactive) | 64.6 µM (inactive) | 3.24 µM (inactive) | 1.83 µM (inactive) | 1.37 µM (inactive) | 4.06 µM (inactive) |  | 4.11 µM (inactive) | 4.18 µM (inactive) | 2.99 µM (inactive) | 3.52 µM (inactive) |  | 3.94 µM (inactive) |  | 1.53 µM | 5.4 µM (inactive) | 5.74 µM (inactive) |
| CCOC(=O)Cc1cnc(NC(NC(=O)CC)(C(F)(F)F)C(F)(F)F)s1 | > 100 µM (inactive) | > 100 µM (inactive) | > 100 µM (inactive) | > 100 µM (inactive) | > 100 µM (inactive) | > 100 µM (inactive) | > 100 µM (inactive) | > 100 µM (inactive) | > 100 µM (inactive) | > 100 µM (inactive) | > 100 µM (inactive) | > 100 µM (inactive) | > 100 µM (inactive) | > 100 µM (inactive) | > 100 µM (inactive) | > 100 µM (inactive) |  | > 100 µM |  |  |
